From PMC6522510 (Nature Communications, 2019) come the findings set out here.

Some test systems named below: CHRF288-11; CMK; CMS; M07e; ML-2; MOLM-13; MV4-11; U937.
Set-up in all cases: species or system AML cell lines (8); Primary HTS, single concentration about 10 uM, Cell Titer Glo viability; log10 luminescence, per cent inhibition relative to cycloheximide control
What all share (settings): 72 h, relative to cycloheximide control, log10 luminescence; inhibitor

As for `O=C1NC(=N[C@H](CO)c2ccccc2)S/C1=C\c1ccc2ncccc2c1` [SJ000581004-2], in the experiment with CHRF288-11, the CHRF288-11 %inh is given as 1.03%. Besides, the CMK %inh in the experiment with CMK was 28.24%. Also, the CMS %inh in the experiment with CMS turned out to be 2.583%. Moreover, in the experiment on M07e, the M07e %inh was found to be 10.69%. The ML-2 %inh in the experiment with ML-2 turned out to be 2.475%. Moreover, the MOLM-13 %inh in the experiment on MOLM-13 was determined as 7.874%. Moreover, the MV4-11 %inh in the experiment with MV4-11 came out at 3.175%. Moreover, the U937 %inh with U937 stood at 9.058%.
For the compound `CS(=O)(=O)CCc1cccc(C(=O)c2cnn(-c3ccc(F)cc3)c2N)c1` [SJ000581118-1], in the experiment with CHRF288-11, the CHRF288-11 %inh is -6.13%. In the experiment with CMK, the CMK %inh worked out at 3.205%. Further, in the experiment with CMS, the CMS %inh was determined as 3.108%. Moreover, in the experiment with M07e, the M07e %inh is recorded as 5.628%. Besides, in the experiment with ML-2, the ML-2 %inh turned out to be 0.2726%. Besides, in the experiment on MOLM-13, the MOLM-13 %inh was determined as 3.918%. The MV4-11 %inh with MV4-11 was determined as 2.402%. In addition, the U937 %inh in the experiment on U937 amounted to 3.157%.
In the case of `O=C1NC(=NCCc2cccs2)S/C1=C\c1ccc2ncccc2c1` [SJ000581015-1], in the experiment on CHRF288-11, the CHRF288-11 %inh is reported as -3.354%. In addition, in the experiment with CMK, the CMK %inh was 2.413%. The CMS %inh with CMS came out at 2.886%. The compound also showed an M07e %inh with M07e of 0.2412%. Besides, the ML-2 %inh in the experiment on ML-2 turned out to be 1.872%. For the same compound, in the experiment with MOLM-13, the MOLM-13 %inh stood at 1.226%. The MV4-11 %inh with MV4-11 is listed as 1.469%. In addition, the U937 %inh with U937 is listed as 4.783%.
For `CCN1CCC(CC(=O)Nc2n[nH]c3nc(-c4cccs4)c(Br)cc23)CC1` [SJ000573264-1, AG201339-025C2], the CHRF288-11 %inh in the experiment with CHRF288-11 is 10.8%. The CMK %inh with CMK is on record as 18.01%. Further, the CMS %inh with CMS is 7.013%. Further, the M07e %inh in the experiment on M07e is listed as 7.209%. Further, in the experiment with ML-2, the ML-2 %inh is -1.837%. In addition, the MOLM-13 %inh in the experiment with MOLM-13 came out at 8.584%. Moreover, in the experiment with MV4-11, the MV4-11 %inh is recorded as 29.41%. The U937 %inh with U937 amounted to 1.142%.
Take `Cc1ccccc1C1=C(c2cn(C)c3ccccc23)C(=O)NC1=O` [SJ000581162-1]: the CHRF288-11 %inh in the experiment on CHRF288-11 stood at 8.356%. Besides, the CMK %inh in the experiment on CMK is given as 3.937%. The CMS %inh with CMS was determined as 6.978%. The same compound had an M07e %inh in the experiment on M07e of 5.581%. Also, the ML-2 %inh with ML-2 is 3.854%. The MOLM-13 %inh in the experiment on MOLM-13 was found to be 0.3788%. The MV4-11 %inh with MV4-11 came out at 6.408%. Besides, the U937 %inh with U937 turned out to be 0.403%.
As to `COC(=O)Nc1nc2ccc(Oc3ccc(NC(=O)Nc4cccc(Cl)c4)cc3)cc2[nH]1` [SJ000573158-1, T278/6/1], in the experiment on CHRF288-11, the CHRF288-11 %inh turned out to be 9.893%. Further, the CMK %inh with CMK is on record as 60.27%. Also, in the experiment on CMS, the CMS %inh is 11.78%. For the same compound, the M07e %inh with M07e is recorded as 46.36%. In addition, the ML-2 %inh with ML-2 amounted to 61.89%. Besides, the MOLM-13 %inh in the experiment with MOLM-13 stood at 98.07%. Also, the MV4-11 %inh in the experiment with MV4-11 is recorded as 87.76%. The U937 %inh with U937 turned out to be 93.62%.
As for `c1ccc(Cc2nc3ccc(Nc4ncnc5ccccc45)cc3[nH]2)cc1` [SJ000573247-1, C3072/110/1], in the experiment on CHRF288-11, the CHRF288-11 %inh was found to be 3.355%. The CMK %inh in the experiment on CMK was -4.013%. Further, the CMS %inh in the experiment on CMS is recorded as 0.8443%. In the experiment with M07e, the M07e %inh was found to be 0.8889%. Further, the ML-2 %inh with ML-2 is 2.215%. Besides, in the experiment with MOLM-13, the MOLM-13 %inh worked out at 6.702%. Also, the MV4-11 %inh in the experiment with MV4-11 worked out at 1.262%. In addition, the U937 %inh in the experiment on U937 is on record as -1.321%.
On to `COc1cccc(COc2cc(-n3cnc4ccccc43)sc2C(N)=O)c1` [SJ000573305-1, U17845/44/3], for which the CHRF288-11 %inh with CHRF288-11 came to 7.099%. Besides, in the experiment on CMK, the CMK %inh is given as 1.494%. The CMS %inh in the experiment on CMS was determined as 2.005%. In the experiment with M07e, the M07e %inh came to 2.73%. Moreover, the ML-2 %inh in the experiment on ML-2 worked out at 3.033%. In addition, the MOLM-13 %inh in the experiment on MOLM-13 is on record as 4.701%. Also, the MV4-11 %inh in the experiment with MV4-11 came to 0.1016%. In the experiment with U937, the U937 %inh turned out to be 5.488%.
In the case of `Cc1ccc2c(-c3ccnc(Nc4ccccc4)n3)c(-c3ccc(F)cc3)nn2n1` [SJ000573077-1, U18020/155/1], in the experiment on CHRF288-11, the CHRF288-11 %inh came out at 5.564%. Further, the CMK %inh with CMK was 0.5232%. In the experiment on CMS, the CMS %inh is on record as 18.56%. The compound also had an M07e %inh in the experiment with M07e of 7.072%. For the same compound, in the experiment on ML-2, the ML-2 %inh is 0.6284%. Moreover, in the experiment with MOLM-13, the MOLM-13 %inh is recorded as -1.366%. Also, the MV4-11 %inh in the experiment on MV4-11 is given as -0.5842%. Also, the U937 %inh in the experiment on U937 is 0.3541%.
In the case of `CCCN(CCc1ccc(O)cc1)C(=O)[C@@H](C)c1cccc(C(=O)c2ccccc2)c1` [SJ000520373-2, NMDA298-1], the CHRF288-11 %inh in the experiment with CHRF288-11 is on record as 9.808%. For the same compound, the CMK %inh in the experiment with CMK is recorded as 9.519%. In addition, in the experiment with CMS, the CMS %inh was 3.128%. This compound also returned an M07e %inh with M07e of 11.25%. Further, in the experiment on ML-2, the ML-2 %inh is 1.661%. Also, the MOLM-13 %inh in the experiment on MOLM-13 turned out to be 13.67%. Further, in the experiment on MV4-11, the MV4-11 %inh is on record as 11.33%. In addition, the U937 %inh in the experiment with U937 amounted to 10.97%.
For the compound `COc1ccc(Cl)cc1C(=O)NCCc1ccc(S(=O)(=O)NC(=O)NC2CCCCC2)cc1` [SJ000285391-7, GLYBURIDE | GLIBENCLAMIDE], the CHRF288-11 %inh in the experiment on CHRF288-11 is on record as 12.75%. In the experiment on CMK, the CMK %inh is given as -6.568%. In addition, in the experiment with CMS, the CMS %inh is reported as -0.9752%. The compound also displayed an M07e %inh with M07e of 3.672%. Besides, the ML-2 %inh with ML-2 is reported as 1.589%. In the experiment on MOLM-13, the MOLM-13 %inh was determined as 3.373%. Besides, in the experiment with MV4-11, the MV4-11 %inh is 0.5716%. For the same compound, in the experiment on U937, the U937 %inh was found to be 0.5073%.
As for `Nc1c(C(=O)c2ccc(-c3cccnc3)cc2)cnn1-c1ccc(F)cc1` [SJ000581132-1], the CHRF288-11 %inh in the experiment on CHRF288-11 was 1.549%. Besides, the CMK %inh with CMK is -0.6442%. The CMS %inh with CMS amounted to 7.229%. Moreover, the M07e %inh in the experiment with M07e is on record as 5.04%. In addition, the ML-2 %inh in the experiment on ML-2 is on record as -1.014%. For the same compound, in the experiment on MOLM-13, the MOLM-13 %inh is reported as 0.5666%. Besides, the MV4-11 %inh in the experiment with MV4-11 turned out to be 2.713%. The U937 %inh in the experiment with U937 is given as -1.133%.
For the compound `FC(F)(F)CNc1nccc(-c2cnn3ncccc23)n1` [SJ000573348-1, U14929/198/1], the CHRF288-11 %inh with CHRF288-11 is reported as 8.25%. Also, the CMK %inh with CMK turned out to be 5.414%. Besides, in the experiment with CMS, the CMS %inh came to 9.976%. This compound yielded an M07e %inh in the experiment on M07e of 2.938%. In the experiment with ML-2, the ML-2 %inh worked out at 3.221%. For the same compound, the MOLM-13 %inh with MOLM-13 stood at 10.23%. For the same compound, the MV4-11 %inh in the experiment on MV4-11 is on record as 26.7%. For the same compound, the U937 %inh with U937 worked out at 21.18%.
Take `COc1cc(/C=N/Nc2ncnc3[nH]ncc23)ccc1O` [SJ000573263-1, U15117/8/1]: the CHRF288-11 %inh with CHRF288-11 is 2.923%. In addition, the CMK %inh with CMK is reported as 1.246%. Also, the CMS %inh in the experiment on CMS was 3.056%. Moreover, the M07e %inh in the experiment with M07e is 4.954%. Further, in the experiment with ML-2, the ML-2 %inh is reported as 0.3724%. In addition, the MOLM-13 %inh in the experiment with MOLM-13 amounted to 34.62%. Further, the MV4-11 %inh in the experiment with MV4-11 is 32.98%. For the same compound, the U937 %inh in the experiment with U937 was determined as 2.504%.
As to `C[C@@H](Oc1cc(-n2cnc3ccc(OC[C@@H](O)CO)cc32)sc1C(N)=O)c1ccccc1Cl` [SJ000573335-1, U22436/41/1], in the experiment on CHRF288-11, the CHRF288-11 %inh was determined as 63.27%. In addition, the CMK %inh with CMK turned out to be 83.74%. Further, the CMS %inh in the experiment on CMS amounted to 71.91%. Moreover, the M07e %inh in the experiment on M07e came out at 110.3%. In addition, the ML-2 %inh with ML-2 amounted to 25.64%. In addition, the MOLM-13 %inh in the experiment with MOLM-13 is 82.19%. Further, the MV4-11 %inh in the experiment on MV4-11 is given as 65.42%. In the experiment with U937, the U937 %inh was determined as 86.31%.
